Here are results for 42 compounds from patent US20050130989A1, “N-arylheteroaromatic products compositions containing them and use thereof” (Aventis Pharma S. A., priority 2003, published 2005).

Read-outs that look alike come from different tables or passages of the source.

Assay [1] deals with T1, tubulin (Sus scrofa, UniProt P02550+P02554).
T1 construct: Tubulin is purified from pig brain according to published methods; from tissue; host or cells: pig brain
Briefly: Evaluation of the inhibition of tubulin polymerization (turbidimetry). In kind it is biochemical, pig. The note with it: tubulin 10 μm (1 mg/ml), 37° C., turbidity at 350 nm; concentration that inhibits the rate of polymerization by 50%; read-out: Inhibition of tubulin polymerization IC 50 (μm). In a few lines:
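Pig brain tubulin (>95% pure), 10 μm in MES pH 6.8/30% glycerol buffer plus 1 mM GTP and 6 mM MgCl2, with compound at 0.5–10 μm added before polymerization. Polymerization triggered by shift from 6° C to 37° C, followed by turbidity at 350 nm; IC50 is 50% inhibition of polymerization rate.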

Assay [2] concerns HCT116 cells. Briefly: Inhibition of proliferation of the human colon tumor line HCT116 ([14C]-thymidine incorporation). In kind it is cell-based. To be noted: Homo sapiens, read-out: Inhibition of HCT116 proliferation IC 50 (μm). The procedure: The proliferation of HCT116 cells is evaluated by measuring the incorporation of [^14C]-thymidine in the following manner. The HCT 116 cells (obtained from the ATCC) are cultured in a DMEM medium (Gibco) containing 10% fetal calf serum and antibiotics (1% penicillin, 1% streptomycin). To perform the proliferation test, the cells are inoculated in cytostar 96-well microplates (Amersham), at a rate of 5000 cells per well. [^14C]-thymidine (0.1 μCi/well) and the products to be evaluated are then added. Variable concentrations of products up to 10 μm are used; the DMSO (solvent used to dissolve the products) should not exceed 0.5% in the medium. 48 hours after incubation at 37° C., the radioactivity incorporated into the cells is measured by counting the plate in a TRI-LUX counter (Wallac). The IC50 is defined as the concentration of product that reduces the radioactivity by 50% compared with an untreated control. A product whose IC50 is less than 3 μm is considered cytotoxic.

[3] abbreviates: HCT-116, 48 h, 48 hours at 37° C.

T1 sequence (P02550 whole entry): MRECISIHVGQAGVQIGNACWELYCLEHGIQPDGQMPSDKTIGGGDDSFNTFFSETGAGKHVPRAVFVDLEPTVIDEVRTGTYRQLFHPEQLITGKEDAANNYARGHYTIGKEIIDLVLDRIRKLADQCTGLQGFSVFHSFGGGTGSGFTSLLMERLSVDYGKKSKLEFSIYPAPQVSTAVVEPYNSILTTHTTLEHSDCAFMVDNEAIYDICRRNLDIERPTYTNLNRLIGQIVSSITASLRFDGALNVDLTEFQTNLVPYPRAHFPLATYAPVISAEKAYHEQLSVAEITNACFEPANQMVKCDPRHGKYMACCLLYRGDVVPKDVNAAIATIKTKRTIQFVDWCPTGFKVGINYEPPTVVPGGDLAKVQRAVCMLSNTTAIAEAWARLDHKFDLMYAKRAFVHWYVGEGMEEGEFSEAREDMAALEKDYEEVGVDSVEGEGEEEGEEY
T1 sequence (P02554 whole entry): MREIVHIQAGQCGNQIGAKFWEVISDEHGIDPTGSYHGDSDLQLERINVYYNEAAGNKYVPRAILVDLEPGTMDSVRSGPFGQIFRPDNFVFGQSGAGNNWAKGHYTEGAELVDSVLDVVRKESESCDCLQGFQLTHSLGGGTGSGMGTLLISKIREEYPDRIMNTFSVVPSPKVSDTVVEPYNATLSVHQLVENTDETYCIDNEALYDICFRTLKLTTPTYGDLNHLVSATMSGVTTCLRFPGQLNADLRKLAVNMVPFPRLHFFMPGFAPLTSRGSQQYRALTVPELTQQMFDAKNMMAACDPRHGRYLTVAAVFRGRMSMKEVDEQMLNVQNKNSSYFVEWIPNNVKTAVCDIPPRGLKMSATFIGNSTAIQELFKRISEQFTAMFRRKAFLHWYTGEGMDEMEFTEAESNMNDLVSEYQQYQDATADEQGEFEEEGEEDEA

In the case of `CSc1ccccc1N1CCN(C(=O)c2cc(C)nn2-c2cccc(Cl)c2)CC1` [3/26], the IC50 in assay [1] was determined as 1.5 µM; in assay [2] (setting [3]), 0.09 µM.
In the same order, the values of `Cc1cc(C(=O)N2CCN(c3cccc(O)c3)CC2)n(-c2ccccc2)n1` [Example E13, [4-(3-Hydroxyphenyl)piperazin-1-yl](5-methyl-2-phenyl-2H-pyrazol-3-yl)-methanone] are 1 µM and 0.0142 µM.
In the same order, the values of `COc1cc(OC)cc(N2CCN(C(=O)c3cc(N4CCC(O)C4)nn3-c3ccccc3)CC2)c1` (stereo not drawn) [Example E106, [4-(3,5-Dimethoxyphenyl)piperazin-1-yl][5-(3-hydroxypyrrolidin-1-yl)-2-phenyl-2H-pyrazol-3-yl]methanone] are 10 µM and 0.142 µM.
The matching figures for `Cc1ccc(-n2nc(C)cc2C(=O)N2CCN(c3cccc(C(F)(F)F)c3)CC2)cc1` [3/131]: 3.1 µM and 0.135 µM.
Regarding `COc1cccc(N2CCN(C(=O)c3cc(C)nn3-c3ccc(F)cc3)CC2)c1` [3/63], the IC50 came to 0.9 µM in assay [1] and 0.019 µM in assay [2] (setting [3]).
The matching figures for `Cc1cc(C(=O)N2CCN(c3ccccc3C)CC2)n(-c2ccc(F)cc2)n1` [3/147]: 7 µM and 1.29 µM.
In the same order, the values of `Cc1cc(C(=O)N2CCN(c3cccc(NC(=O)CCO)c3)CC2)n(-c2ccccc2)n1` [Example E128, 3-Hydroxy-N-{3-[4-(5-methyl-2-phenyl-2H-pyrazole-3-carbonyl)piperazin-1-yl]-phenyl}propionamide] are 3 µM and 0.12 µM.
The matching figures for `Cc1cccc(-n2nc(C)cc2C(=O)N2CCN(c3ccccc3C(F)(F)F)CC2)c1` [3/55]: 5.5 µM and 1.35 µM.
Turning to `CSc1ccccc1N1CCN(C(=O)c2cc(C)nn2-c2cccc(F)c2)CC1` [3/97], the IC50 in assay [1] was found to be 3 µM; in assay [2] (setting [3]), 0.083 µM.
On to `COc1ccccc1N1CCN(C(=O)c2cc(C)nn2-c2cccc(F)c2)CC1` [3/90], for which the IC50 in assay [1] came out at 3 µM; in assay [2] (setting [3]), 0.033 µM.
In the same order, the values of `COc1cc(OC)cc(N2CCN(C(=O)c3cc(C)nn3-c3ccccc3)CC2)c1` [Example E20, [4-(3,5-Dimethoxyphenyl)piperazin-1-yl](5-methyl-2-phenyl-2H-pyrazol-3-yl)-methanone] are 0.29 µM and 0.0015 µM.
Take `COc1ccccc1N1CCN(C(=O)c2cc(C)nn2-c2ccc(F)cc2)CC1` [3/102]: the IC50 in assay [1] came to 13 µM; in assay [2] (setting [3]), 0.181 µM.
For `COc1cc(OC)cc(N2CCN(C(=O)c3cc(-c4ccc[nH]4)nn3-c3ccccc3)CC2)c1` [Example E91, [4-(3,5-Dimethoxyphenyl)piperazin-1-yl][2-phenyl-5-(1H-pyrrol-2-yl)-2H-pyrazol-3-yl]methanone], the IC50 amounted to 1 µM in assay [1] and 0.0105 µM in assay [2] (setting [3]).
In the same order, the values of `Cc1ccc(-n2nc(C)cc2C(=O)N2CCN(c3cccc(C)c3)CC2)cc1` [3/28] are 7 µM and 0.269 µM.
In the same order, the values of `Cc1cccc(N2CCN(C(=O)c3cc(C)nn3-c3ccc(Cl)cc3)CC2)c1` [3/74] are 7.5 µM and 0.298 µM.
In the same order, the values of `Cc1cc(C(=O)N2CCN(c3cccc4ccccc34)CC2)n(-c2cccc(F)c2)n1` [3/20] are 3 µM and 1.85 µM.
Regarding `Cc1cc(C(=O)N2CCN(c3cccc(F)c3)CC2)n(-c2ccccc2)n1` [3/152], the IC50 in assay [1] turned out to be 0.8 µM; in assay [2] (setting [3]), 0.0063 µM.
For `COc1ccc(Cl)cc1N1CCN(C(=O)c2cc(C)nn2-c2ccccc2)CC1` [3/83], the results for the IC50 in assay [1] and in assay [2] (setting [3]) were 1.5 µM and 0.0066 µM, respectively.
The matching figures for `CCOc1ccccc1N1CCN(C(=O)c2cc(C)nn2-c2ccccc2)CC1` [3/43]: 9 µM and 0.229 µM.
`COc1cccc(N2CCN(C(=O)c3cc(C)nn3-c3ccccc3)CC2)c1` [3/10]: the IC50 in assay [1] was found to be 2 µM; in assay [2] (setting [3]), 0.025 µM.
In the same order, the values of `COc1cccc(-n2nc(C)cc2C(=O)N2CCN(c3cccc(C(F)(F)F)c3)CC2)c1` [3/133] are 6.2 µM and 0.214 µM.
In the same order, the values of `Cc1cc(C(=O)N2CCN(c3ccccc3Cl)CC2)n(-c2ccccc2)n1` [3/112] are 15 µM and 1.52 µM.
Consider `COc1ccc(Cl)cc1N1CCN(C(=O)c2cc(C)nn2-c2cccc(C)c2)CC1` [3/54], for which the IC50 was found to be 1 µM in assay [1] and 0.117 µM in assay [2] (setting [3]).
The matching figures for `COc1cc(OC)cc(N2CCN(C(=O)c3ccnn3-c3ccccc3)CC2)c1` [Example E92, [4-(3,5-Dimethoxyphenyl)piperazin-1-yl](2-phenyl-2H-pyrazol-3-yl)methanone]: 1.16 µM and 0.001 µM.
In the same order, the values of `Cc1cccc(-n2nc(C)cc2C(=O)N2CCN(c3ccc(C)c(C)c3)CC2)c1` [3/30] are 2.9 µM and 0.729 µM.
The matching figures for `Cc1cc(C(=O)N2CCN(c3ccc(C)c(C)c3)CC2)n(-c2ccccc2F)n1` [3/86]: 12.5 µM and 0.385 µM.
`Cc1cc(C(=O)N2CCN(c3cc(Cl)cc(Cl)c3)CC2)n(-c2ccccc2)n1` [Example E2, [4-(3,5-Dichlorophenyl)piperazin-1-yl](5-methyl-2-phenyl-2H-pyrazol-3-yl)methanone]: the values for the IC50 in assay [1] and in assay [2] (setting [3]) were 1.5 µM and 0.0001 µM, respectively.
The matching figures for `O=C(c1cc(-c2cccnc2)nn1-c1ccccc1)N1CCN(c2cccc(Cl)c2)CC1` [Example E67, [4-(3-Chlorophenyl)piperazin-1-yl][2-phenyl-5-(pyrid-3-yl)-2H-pyrazol-3-yl]methanone]: 2.3 µM and 0.237 µM.
In the same order, the values of `O=C(c1cc(CNc2ccccc2)nn1-c1ccccc1)N1CCN(c2cccc(Cl)c2)CC1` [Example E76, [4-(3-Chlorophenyl)piperazin-1-yl](2-phenyl-5-phenylaminomethyl-2H-pyrazol-3-yl)methanone] are 1.9 µM and 0.138 µM.
In the same order, the values of `O=C(c1cc(COCc2ccccc2)nn1-c1ccccc1)N1CCN(c2cccc(Cl)c2)CC1` [Example E80, (5-Benzyloxymethyl-2-phenyl-2H-pyrazol-3-yl)[4-(3-chlorophenyl)piperazin-1-yl]methanone] are 4.4 µM and 1.13 µM.
Take `COc1cccc(N2CCN(C(=O)c3cc(C)nn3-c3cccc(Cl)c3)CC2)c1` [3/25]: the IC50 in assay [1] amounted to 1.8 µM; in assay [2] (setting [3]) it was 0.04 µM.
The matching figures for `CCc1ccccc1N1CCN(C(=O)c2cc(C)nn2-c2ccc(F)cc2)CC1` [3/104]: 5 µM and 0.285 µM.
As for `Cc1cc(CN2CCN(c3cccc(Cl)c3)CC2)n(-c2ccccc2)n1` [Example E14, [4-(3-chlorophenyl)piperazin-1-yl](5-methyl-2-phenyl-2H-pyrazol-3-yl)methane], the IC50 is 12 µM in assay [1] and 3.08 µM in assay [2] (HCT-116, 48 hours at 37° C.).
Turning to `COc1cc(OC)cc(N2CCN(C(=O)c3cc(N4CCCC4)nn3-c3ccccc3)CC2)c1` [Example E93, [4-(3,5-Dimethoxyphenyl)piperazin-1-yl][2-phenyl-5-(pyrrolidin-1-yl)-2H-pyrazol-3-yl]methanone], the IC50 stood at 2.02 µM in assay [1] and 0.0063 µM in assay [2] (setting [3]).
In the same order, the values of `Cc1nccn1Cc1cc(C(=O)N2CCN(c3cccc(Cl)c3)CC2)n(-c2ccccc2)n1` [Example E75, [4-(3-Chlorophenyl)piperazin-1-yl][5-(2-methylimidazol-1-ylmethyl)-2-phenyl-2H-pyrazol-3-yl]methanone] are 5.1 µM and 0.0612 µM.
In the same order, the values of `Cc1cc(C(=O)N2CCN(c3cccc(C(F)(F)F)c3)CC2)n(-c2ccc(F)cc2)n1` [3/23] are 3 µM and 0.434 µM.
In the same order, the values of `COc1cc(OC)cc(N2CCN(C(=O)c3cc(C(Br)Br)nn3-c3ccccc3)CC2)c1` [Example E78, [4-(3,5-Dimethoxyphenyl)piperazin-1-yl](3-dibromomethyl-1-phenyl-1H-pyrazol-5-yl)methanone] are 14 µM and 0.318 µM.
On to `COc1cccc(N2CCN(C(=O)c3cc(C)nn3-c3cccc(F)c3)CC2)c1` [3/96], for which the IC50 came to 1.8 µM in assay [1] and 0.0036 µM in assay [2] (setting [3]).
In the same order, the values of `COc1cccc(N2CCN(C(=O)c3cc(C)nn3-c3cccc(C)c3)CC2)c1` [3/49] are 1 µM and 0.0079 µM.
In the same order, the values of `COc1cccc(-n2nc(C)cc2C(=O)N2CCN(c3ccc(Cl)c(Cl)c3)CC2)c1` [3/81] are 3.5 µM and 0.295 µM.
The matching figures for `Cc1cc(C(=O)N2CCN(c3ccc(F)cc3)CC2)n(-c2cccc(Cl)c2)n1` [3/24]: 5 µM and 0.239 µM.
With `Cc1cc(C(=O)N2CCN(c3ccc(Cl)cc3)CC2)n(-c2cccc(Cl)c2)n1` [3/69], the IC50 in assay [1] was determined as 18 µM; in assay [2] (setting [3]), 0.347 µM.
